The text below walks through data of PMC11647683, “Structural Aspects of Mycobacterium tuberculosis DNA Gyrase Targeted by Novel Bacterial Topoisomerase Inhibitors” (ACS Medicinal Chemistry Letters, 2024).

Like-named read-outs stand apart in the source and are kept apart here. Some results are limits rather than exact numbers.

Data set [1] deals with T1, M. tuberculosis DNA gyrase (Mycobacterium tuberculosis, UniProt P9WG47).
T1 construct: purchased Inspiralis (Norwich, UK)
In words: biochemical. It counts as biochemical.

Data set [2] addresses T1, M. tuberculosis DNA gyrase. Description: biochemical. The following applies: M. tuberculosis DNA gyrase supercoiling, 100 nM compound.
Data set [3] has as its system M. tuberculosis H37Rv. In words: microbe, parasite or virus in culture. The data set is classed as cell-based. The following applies: Mycobacterium tuberculosis; for IC50: read-out: Antituberculosis activity M. tuberculosis H37Rv IC50; for IC90: read-out: Antituberculosis activity M. tuberculosis H37Rv IC90.
Another data set concerns the target hERG (Homo sapiens, UniProt Q12809).
Data set [4] deals with M. tuberculosis H37Rv. The following applies: calculated from the published MIC value ref 26; cited from earlier work.
The mark [5] stands for this setting: M. tuberculosis gyrase supercoiling IC50, Assay 1, Assay 1 (single determination).
The mark [6] stands for this setting: M. tuberculosis gyrase supercoiling IC50, Assay 2, Assay 2 (single determination).
The mark [7] stands for this setting: supercoiling assay, mean of two independent measurements ± SD, read-out: Enzyme inhibition M. tuberculosis DNA gyrase IC50.
Setting [8] is: reference wild-type strain, 90% inhibition of bacteria growth, mean of two independent measurements ± SD.
Setting [9] is: Assay 1 (single determination), read-out: M. tuberculosis gyrase supercoiling IC50, Assay 1.
[10] abbreviates: Assay 2 (single determination), read-out: M. tuberculosis gyrase supercoiling IC50, Assay 2.

Broadly, the IC50 is the concentration that inhibits the measured activity by half. The inhibition is the share of the control response that was lost under treatment. For orientation: IC90 means the point of the concentration-response curve where the effect stands at 90%.

T1 sequence (P9WG45 whole entry): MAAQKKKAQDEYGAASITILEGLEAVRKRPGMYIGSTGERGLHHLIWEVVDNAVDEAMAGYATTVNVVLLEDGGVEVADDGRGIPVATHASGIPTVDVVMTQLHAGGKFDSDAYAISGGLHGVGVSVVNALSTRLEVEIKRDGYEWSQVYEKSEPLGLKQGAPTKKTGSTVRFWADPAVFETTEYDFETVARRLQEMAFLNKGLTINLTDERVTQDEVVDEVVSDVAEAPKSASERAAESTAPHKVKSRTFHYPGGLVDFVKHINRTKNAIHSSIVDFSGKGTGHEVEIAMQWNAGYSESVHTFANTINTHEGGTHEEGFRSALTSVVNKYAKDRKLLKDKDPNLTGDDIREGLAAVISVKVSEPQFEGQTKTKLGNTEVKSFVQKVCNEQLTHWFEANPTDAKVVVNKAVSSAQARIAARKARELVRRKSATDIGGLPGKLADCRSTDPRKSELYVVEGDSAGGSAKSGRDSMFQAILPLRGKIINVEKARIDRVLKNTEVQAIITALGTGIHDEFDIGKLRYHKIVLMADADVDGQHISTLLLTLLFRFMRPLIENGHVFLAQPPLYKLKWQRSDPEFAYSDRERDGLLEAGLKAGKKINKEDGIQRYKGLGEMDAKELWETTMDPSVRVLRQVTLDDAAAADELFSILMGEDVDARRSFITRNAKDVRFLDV
T1 sequence (P9WG47 whole entry): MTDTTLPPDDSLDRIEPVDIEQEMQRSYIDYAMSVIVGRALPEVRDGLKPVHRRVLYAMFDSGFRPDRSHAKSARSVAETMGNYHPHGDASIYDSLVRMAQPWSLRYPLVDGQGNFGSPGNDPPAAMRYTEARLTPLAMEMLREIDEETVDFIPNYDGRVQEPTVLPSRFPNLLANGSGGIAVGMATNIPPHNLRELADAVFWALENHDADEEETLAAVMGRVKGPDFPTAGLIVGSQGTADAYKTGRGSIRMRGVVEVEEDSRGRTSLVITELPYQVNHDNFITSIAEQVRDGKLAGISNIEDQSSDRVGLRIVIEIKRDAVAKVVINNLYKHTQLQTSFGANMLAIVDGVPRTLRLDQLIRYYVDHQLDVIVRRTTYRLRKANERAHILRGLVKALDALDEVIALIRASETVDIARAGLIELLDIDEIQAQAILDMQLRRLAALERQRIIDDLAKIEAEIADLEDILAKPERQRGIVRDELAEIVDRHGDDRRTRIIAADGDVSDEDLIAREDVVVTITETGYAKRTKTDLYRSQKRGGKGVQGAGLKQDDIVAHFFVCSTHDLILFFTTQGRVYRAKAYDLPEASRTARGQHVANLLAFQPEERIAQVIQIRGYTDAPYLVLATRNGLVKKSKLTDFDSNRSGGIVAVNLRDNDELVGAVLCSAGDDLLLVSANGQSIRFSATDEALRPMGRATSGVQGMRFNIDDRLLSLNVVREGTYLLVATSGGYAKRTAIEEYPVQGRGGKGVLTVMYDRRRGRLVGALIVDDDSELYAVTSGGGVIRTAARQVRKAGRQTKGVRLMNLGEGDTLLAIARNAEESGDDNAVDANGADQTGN
Sequence of hERG (Q12809 whole entry): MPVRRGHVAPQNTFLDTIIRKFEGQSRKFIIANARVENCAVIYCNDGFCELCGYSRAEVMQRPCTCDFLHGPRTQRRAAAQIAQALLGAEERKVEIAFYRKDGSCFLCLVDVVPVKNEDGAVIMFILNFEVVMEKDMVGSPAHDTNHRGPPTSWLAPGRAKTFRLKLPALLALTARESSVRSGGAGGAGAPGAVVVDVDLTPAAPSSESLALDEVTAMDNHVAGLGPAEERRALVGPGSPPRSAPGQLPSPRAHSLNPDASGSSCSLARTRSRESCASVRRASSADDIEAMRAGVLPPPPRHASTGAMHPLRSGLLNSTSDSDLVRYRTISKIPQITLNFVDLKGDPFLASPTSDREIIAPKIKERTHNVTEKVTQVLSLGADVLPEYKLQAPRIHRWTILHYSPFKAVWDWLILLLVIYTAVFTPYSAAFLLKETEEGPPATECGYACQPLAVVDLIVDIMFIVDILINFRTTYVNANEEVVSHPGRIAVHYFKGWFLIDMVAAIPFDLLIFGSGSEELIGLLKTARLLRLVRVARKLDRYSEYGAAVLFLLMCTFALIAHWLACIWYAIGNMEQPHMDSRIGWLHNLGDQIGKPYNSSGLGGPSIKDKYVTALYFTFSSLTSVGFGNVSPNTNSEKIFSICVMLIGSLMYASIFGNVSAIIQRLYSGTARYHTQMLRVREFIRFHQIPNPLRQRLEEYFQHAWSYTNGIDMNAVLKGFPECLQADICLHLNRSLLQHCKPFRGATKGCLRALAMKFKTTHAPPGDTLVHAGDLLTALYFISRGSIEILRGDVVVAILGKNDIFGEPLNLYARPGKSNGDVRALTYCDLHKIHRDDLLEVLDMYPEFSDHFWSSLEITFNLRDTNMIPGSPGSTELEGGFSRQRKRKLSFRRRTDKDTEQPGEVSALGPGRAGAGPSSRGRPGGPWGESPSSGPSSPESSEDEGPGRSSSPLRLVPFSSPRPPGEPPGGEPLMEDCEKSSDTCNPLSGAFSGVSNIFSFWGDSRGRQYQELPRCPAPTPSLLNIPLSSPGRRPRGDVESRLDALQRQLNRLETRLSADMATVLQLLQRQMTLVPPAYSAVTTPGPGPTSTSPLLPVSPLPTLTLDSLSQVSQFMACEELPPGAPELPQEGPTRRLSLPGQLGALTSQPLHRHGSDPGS

For `COc1ccc2nccc(CCN3CCC(NCc4ccc(I)c(F)c4)CC3)c2n1` [Compound 2], the IC50 in data set [1] (setting [5]) amounted to 155 nM; in data set [1] (setting [6]) it was 56 nM; in data set [1] (setting [7]), 105 ± 50 nM; in the data set with M. tuberculosis H37Rv [3], 200 ± 25 nM; at hERG, 243 nM. Further, the inhibition at 0.1 µM in data set [2] is 80.4%. Moreover, the IC90 in the data set with M. tuberculosis H37Rv [3] (setting [8]) was determined as 270 ± 45 nM.

For the molecule `COc1ccc2nccc(OCC3CCC(NCc4cc(F)c(Br)c(F)c4)CC3)c2n1` (stereo not shown) [Compound 28], the inhibition at 0.1 µM in data set [2] amounted to 23.8%.

In data set [2], `COc1ccc2nccc(CCN3CCC(NCc4cnn(C(C)C)c4)CC3)c2n1` [Compound 9] displayed an inhibition at 0.1 µM of 7.45%.

For the molecule `COc1ccc2nccc(OCC3CCC(NCc4ccc(I)cc4)CO3)c2n1` (stereo not shown) [Compound 32], the inhibition at 0.1 µM in data set [2] worked out at 0.6%.

Take `COc1ccc2nccc(CCN3CCC(NCc4cc(F)c(Br)c(F)c4)CC3)c2n1` [Compound 4]: the IC50 was found to be 89 nM in data set [1] (setting [9]), 69 nM in data set [1] (setting [10]) and 79 ± 10 nM in data set [1] (setting [7]). Further, the inhibition at 0.1 µM in data set [2] turned out to be 99.8%. Moreover, in the data set with M. tuberculosis H37Rv [3] (setting [8]), the IC90 was 62 ± 4 nM.

Molecule `COc1ccc2nccc(CCN3CCC(NCc4ccccc4)CC3)c2n1` [Compound 13] yielded an inhibition at 0.1 µM in data set [2] of 0%.

In turn, `COc1ccc2nccc(OCC3CCC(NCc4ccc(Cl)cc4)CC3)c2n1` (stereo not shown) [Compound 24] had an inhibition at 0.1 µM in data set [2] of 4.7 ± 4.7%.

`COc1ccc2nccc(CCN3CCC(NCc4ccc(I)cc4)CC3)c2n1` [Compound 17]: the inhibition at 0.1 µM in data set [2] turned out to be 63.7%.

`C=CCn1cc(CNC2CCN(CCc3ccnc4ccc(OC)nc34)CC2)cn1` [Compound 10] displayed an inhibition at 0.1 µM in data set [2] of 5.13%.

Consider `COc1ccc2nccc(OCC3CCC(NCc4ccc(I)c(F)c4)CO3)c2n1` (stereo not shown) [Compound 35], for which the inhibition at 0.1 µM in data set [2] was 20.3%.

Consider `COc1ccc2nccc(OCC3CCC(NCc4ccc(Br)cc4)CO3)c2n1` (stereo not shown) [Compound 31], for which the inhibition at 0.1 µM in data set [2] turned out to be 0%.

`COc1ccc2nccc(CCN3CCC(NCc4ccc(I)c(F)c4F)CC3)c2n1` [Compound 21] displayed an inhibition at 0.1 µM in data set [2] of 14.4%.

Regarding `COc1ccc2nccc(OCC3CCC(NCc4cc(F)c(Cl)c(F)c4)CO3)c2n1` (stereo not shown) [Compound 34], in data set [2], 0.1 µM produced 4.3% inhibition.

Molecule `COc1ccc2nccc(OCC3CCC(NCc4cc(F)c(Cl)c(F)c4)CC3)c2n1` (stereo not shown) [Compound 27] yielded an inhibition at 0.1 µM in data set [2] of 41.6%.

Turning to `COc1ccc2nccc(OCC3CCC(NCc4ccc(Cl)cc4)CO3)c2n1` (stereo not shown) [Compound 30], the inhibition at 0.1 µM in data set [2] was determined as 0%.

In data set [2], `COc1ccc2nccc(CCN3CCC(NCc4ccc(F)cc4)CC3)c2n1` [Compound 14] showed an inhibition at 0.1 µM of 0%.

With `COc1ccc2nccc(CCN3CCC(NCc4ccc(Cl)cc4)CC3)c2n1` [Compound 15], in data set [2], the inhibition at 0.1 µM was determined as 44.8%.

For the molecule `COc1ccc2nccc(OCC3CCC(NCc4ccc(I)c(F)c4)CC3)c2n1` (stereo not shown) [Compound 29], the inhibition at 0.1 µM in data set [2] was determined as 27.8%.

`C[C@H]1COc2c(N3CCN(C)CC3)c(F)cc3c(=O)c(C(=O)O)cn1c23` [Levofloxacin, reference compound]: in the data set on M. tuberculosis H37Rv [3], the IC50 stood at 590 nM and the IC90 is 980 nM.

In data set [2], `COc1ccc2nccc(CCN3CCC(NCc4ccc(N(C)C)cc4)CC3)c2n1` [Compound 11] showed an inhibition at 0.1 µM of 0%.

As for `COc1ccc2nccc(CCN3CCC(NCc4ccc(Cl)c(F)c4)CC3)c2n1` [Compound 18], the inhibition at 0.1 µM in data set [2] amounted to 52.2%.

`COc1ccc2nccc(CCN3CCC(NCc4ccc(Br)cc4)CC3)c2n1` [Compound 16] returned an inhibition at 0.1 µM in data set [2] of 64.1%.

In data set [2], `COc1ccc2nccc(CCN3CCC(NCc4ccc(OC(F)F)c(O)c4)CC3)c2n1` [Compound 7] displayed an inhibition at 0.1 µM of 3.47%.

`COc1ccc2nccc(C(O)CC3CCC(NCc4cc(F)c(Br)c(F)c4)CC3)c2n1` (stereo not shown) [Compound 5]: the IC50 in data set [1] (setting [9]) came out at 97 nM; in data set [1] (setting [10]), 96 nM; in data set [1] (average of Assay 1 and Assay 2, read-out: M. tuberculosis gyrase supercoiling IC50, Average), 96 nM; in data set [1] (setting [7]), 96 nM. The inhibition at 0.1 µM in data set [2] amounted to 95%. Further, the IC90 in the data set with M. tuberculosis H37Rv [3] (setting [8]) turned out to be 280 ± 65 nM.

Regarding `COc1ccc(CNC2CCN(CCc3ccnc4ccc(OC)nc34)CC2)cn1` [Compound 12], 0.1 µM produced 0% inhibition in data set [2].

Take `COc1ccc2nccc(CCN3CCC(NCc4cc(F)c(Cl)c(F)c4)CC3)c2n1` [Compound 3]: the IC50 in data set [1] (setting [9]) is 93 nM; in data set [1] (setting [10]), 91 nM; in data set [1] (setting [7]) it was 92 ± 1 nM; in the data set with M. tuberculosis H37Rv [3], 71 ± 3 nM; against hERG, 436 nM. For the same molecule, 0.1 µM produced 90.2% inhibition in data set [2]. The IC90 in the data set with M. tuberculosis H37Rv [3] (setting [8]) is 92 ± 8 nM.

Molecule `COc1ccc2nccc(CCN3CCC(NCc4ccc(Cl)cn4)CC3)c2n1` [Compound 23] returned an inhibition at 0.1 µM in data set [2] of 0%.

`COc1ccc2nccc(CCN3CCC(NCc4ccc(OC(F)F)c(OC)c4)CC3)c2n1` [Compound 6] gave an inhibition at 0.1 µM in data set [2] of 0%.

In data set [2], `COc1ccc2nccc(CCN3CCC(NCc4ccc(Br)c(F)c4F)CC3)c2n1` [Compound 19] showed an inhibition at 0.1 µM of 29.9%.

The molecule `COc1ccc2nccc(C(O)CC3CCC(NCc4ccc(Br)cc4)CC3)c2n1` (stereo not shown) [Compound 36] displayed an inhibition at 0.1 µM in data set [2] of 24.9%.

On to `COc1ccc2nccc(CCN3CCC(NCc4ccc(C(F)(F)F)nc4)CC3)c2n1` [Compound 8], for which the inhibition at 0.1 µM in data set [2] stood at 27.4%.

On to `COc1ccc2nccc(OCC3CCC(NCc4ccc(I)cc4)CC3)c2n1` (stereo not shown) [Compound 26], for which the inhibition at 0.1 µM in data set [2] was determined as 9.68%.

As for `COc1ccc2nccc(OCC3CCC(NCc4ccc(Br)cc4)CC3)c2n1` (stereo not shown) [Compound 25], in data set [2], at 0.1 µM the inhibition was 0%.

`COc1ccc2nccc(CCN3CCC(NCc4cc(F)c(Br)cc4F)CC3)c2n1` [Compound 20]: in data set [2], at 0.1 µM the inhibition was 43.1%.

Turning to `COc1ccc2nccc(CCN3CCC(NCc4ccc(Cl)nc4)CC3)c2n1` [Compound 22], the inhibition at 0.1 µM in data set [2] amounted to 27.3%.

As for `COc1ccc2nccc(OCC3CCC(NCc4cc(F)c(Br)c(F)c4)CO3)c2n1` (stereo not shown) [Compound 33], the inhibition at 0.1 µM in data set [2] came out at 19.3%.

`O=c1ccc2ncc(=O)n3c2n1C[C@H]3CN1CCC(NCc2cc3c(cn2)OCCC3)CC1` [Gepotidacin, reference compound] had an IC50 on hERG of more than 30000 nM. Besides, the MIC result in the data set with M. tuberculosis H37Rv [4] was “g MIC = 0.86 μM value for Gepotidacin was calculated from the published MIC value.[26] “/” values were not found in the literature”.

`COc1ccc2nccc(CCN3CCC(NCc4ccc(Br)c(F)c4)CC3)c2n1` [Compound 1]: the IC50 in data set [1] (setting [5]) was found to be 397 nM; in data set [1] (setting [6]), 330 nM; in data set [1] (setting [7]), 363 ± 34 nM; with M. tuberculosis H37Rv [3] it was 180 ± 45 nM; against hERG, 455 nM. Further, the inhibition at 0.1 µM in data set [2] came out at 84.1%. Besides, the IC90 in the data set on M. tuberculosis H37Rv [3] (setting [8]) stood at 200 ± 50 nM.
